From ChEMBL document CHEMBL1149033, “Novel HIV-inhibitory halistanol sulfates F-H from a marine sponge, Pseudoaxinissa digitata” (J Nat Prod, 1994)
Activity calls are given as the source filed them. No cut-off for these calls is given here.

Key:
[1] = system: Human immunodeficiency virus 2; experiment: Antiviral activity against HIV2 assessed as cytoprotective activity against viral-infection by NCI primary screen; type: functional, organism-based
[2] = system: Human immunodeficiency virus 1; experiment: Antiviral activity against HIV1 assessed as cytoprotective activity against viral-infection by NCI primary screen; type: functional, organism-based

SMILES	Activity [1]	EC50 [2] [µg/mL]
CC(C)[C@@H](C)CC[C@@H](C)[C@H]1CC[C@H]2[C@@H]3C[C@H](OS(=O)(=O)[O-])[C@H]4C[C@H](OS(=O)(=O)[O-])[C@@H](OS(=O)(=O)[O-])C[C@]4(C)[C@H]3CC[C@]12C.[Na+].[Na+].[Na+] [HALISTANOL SULFATE G SODIUM]	Active	6
CCC(C)(C)C(C)CC[C@@H](C)[C@H]1CC[C@H]2[C@@H]3C[C@H](OS(=O)(=O)[O-])[C@H]4C[C@H](OS(=O)(=O)[O-])[C@@H](OS(=O)(=O)[O-])C[C@]4(C)[C@H]3CC[C@]12C.[Na+].[Na+].[Na+] (some centres undefined) [HALISTANOL SULFATE F]	Active	3
